Consider 5 compounds from ChEMBL document CHEMBL1201862, “PubChem BioAssay data set” (2004).

Active and inactive are the calls of the source.

By EC50 is commonly meant the concentration that produces a half-maximal response. In general, AC50 refers to the concentration at which the activity in the assay is half-maximal.

Experiment [1] concerns the target T1, Sentrin-specific protease 8 (Homo sapiens, UniProt Q96LD8).
T1 sequence (Q96LD8 whole entry): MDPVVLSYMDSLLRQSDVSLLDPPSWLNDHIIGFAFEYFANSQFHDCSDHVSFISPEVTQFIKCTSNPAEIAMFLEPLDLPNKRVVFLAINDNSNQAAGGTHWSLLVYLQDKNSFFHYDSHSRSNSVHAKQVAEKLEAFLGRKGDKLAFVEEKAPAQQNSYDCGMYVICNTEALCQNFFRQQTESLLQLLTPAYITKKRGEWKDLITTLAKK
It counts as functional.

For experiment [2], the target named is T2, Caspase-3 (Homo sapiens, UniProt P42574).
T2 sequence (P42574 whole entry): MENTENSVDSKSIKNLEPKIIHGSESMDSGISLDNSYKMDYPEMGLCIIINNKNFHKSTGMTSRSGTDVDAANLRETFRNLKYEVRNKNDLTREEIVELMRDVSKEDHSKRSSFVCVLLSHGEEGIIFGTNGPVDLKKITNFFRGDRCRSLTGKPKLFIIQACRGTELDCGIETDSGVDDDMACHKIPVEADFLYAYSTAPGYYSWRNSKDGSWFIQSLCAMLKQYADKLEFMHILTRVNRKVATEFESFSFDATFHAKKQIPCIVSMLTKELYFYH
Briefly: Dose-response confirmation of uHTS inhibitor hits of Sentrin-Specific Protease 8 in a Caspase-3 Fluorescence assay. It counts as functional.

Experiment [3] has as its target T1, Sentrin-specific protease 8. It counts as functional. The source holds these as a separate data set.
The target in experiment [4] is T3, Methionyl-tRNA synthetase, putative (Trypanosoma brucei brucei, UniProt Q38C91). It counts as functional, Trypanosoma brucei brucei strain 927/4 GUTat10.1.
T3 sequence (Q38C91 whole entry, the tested form may be a part): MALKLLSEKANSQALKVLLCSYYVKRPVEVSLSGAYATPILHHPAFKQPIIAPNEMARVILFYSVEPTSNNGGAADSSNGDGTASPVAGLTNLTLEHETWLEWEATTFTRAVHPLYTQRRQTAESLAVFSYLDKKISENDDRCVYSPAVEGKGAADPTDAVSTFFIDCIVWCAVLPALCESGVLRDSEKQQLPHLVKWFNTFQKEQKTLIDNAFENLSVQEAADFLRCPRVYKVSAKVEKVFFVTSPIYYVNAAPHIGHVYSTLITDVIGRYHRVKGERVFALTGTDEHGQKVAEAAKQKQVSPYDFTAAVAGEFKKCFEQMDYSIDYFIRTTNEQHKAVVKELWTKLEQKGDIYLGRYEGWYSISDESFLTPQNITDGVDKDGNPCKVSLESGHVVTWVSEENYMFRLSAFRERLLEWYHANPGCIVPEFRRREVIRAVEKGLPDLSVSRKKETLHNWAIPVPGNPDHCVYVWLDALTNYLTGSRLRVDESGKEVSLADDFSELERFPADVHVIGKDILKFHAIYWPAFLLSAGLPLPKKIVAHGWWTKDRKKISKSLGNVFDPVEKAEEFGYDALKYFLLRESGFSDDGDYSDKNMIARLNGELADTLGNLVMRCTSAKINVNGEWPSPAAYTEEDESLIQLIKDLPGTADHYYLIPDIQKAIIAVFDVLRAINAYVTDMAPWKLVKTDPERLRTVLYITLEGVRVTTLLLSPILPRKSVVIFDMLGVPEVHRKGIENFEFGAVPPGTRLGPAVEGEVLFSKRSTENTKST
Experiment [5] deals with T4, Carboxy-terminal domain RNA polymerase II polypeptide A small phosphatase 1 (Homo sapiens, UniProt Q9GZU7).
T4 sequence (Q9GZU7 whole entry): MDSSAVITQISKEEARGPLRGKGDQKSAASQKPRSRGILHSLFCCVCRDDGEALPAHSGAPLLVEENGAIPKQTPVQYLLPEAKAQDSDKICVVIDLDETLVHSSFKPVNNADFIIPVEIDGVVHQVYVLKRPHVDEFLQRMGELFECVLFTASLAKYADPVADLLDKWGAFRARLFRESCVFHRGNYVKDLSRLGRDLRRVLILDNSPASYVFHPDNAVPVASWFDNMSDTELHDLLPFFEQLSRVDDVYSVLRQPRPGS
Kind of experiment: inhibitors of CTDSP1, concentration-response testing, biochemical assay, absorbance-based, actives from ultra-high-throughput screening (AID 540297). It counts as functional.

A short description of experiment [6]: Counterscreen for inhibitors of Trypanosoma brucei methionyl tRNA synthetase (MetRS): Luminescence-based cell-based high throughput dose response assay to identify compounds that are cytotoxic to Jurkat human T lymphocyte cells. It counts as functional. In general terms: Counterscreens check selectivity or assay interference.
For experiment [7], the target named is T3, Methionyl-tRNA synthetase, putative. It counts as functional, Trypanosoma brucei brucei strain 927/4 GUTat10.1. The source holds these as a separate data set.
The subject of experiment [8] is BJ. Briefly: cytotoxicity toward BJ-TERT-LT-ST fibroblasts, dose response, cell-based, RAS-independent, luminescence (AID 1935).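 Also: BJ fibroblasts immortalized with TERT plus LT and ST oncogenes.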 It counts as functional. To be noted: Homo sapiens.
Experiment [9] deals with BJ. Kind of experiment: cytotoxicity toward BJ-TERT fibroblasts, dose response, cell-based, RAS-independent, luminescence (AID 1933). It counts as functional. To be noted: Homo sapiens.
A short description of experiment [10]: microbe, parasite or virus in culture. It counts as functional. To be noted: Mycobacterium tuberculosis.
Experiment [11] is described as follows: Fluorescence-based cell-based high throughput dose response assay for inhibitors of the interaction of nucleotide-binding oligomerization domain containing 2 (NOD2) and the receptor-interacting serine-threonine kinase 2 (RIPK2). It counts as functional. To be noted: Homo sapiens.
Experiment [12] deals with BJ. Kind of experiment: cells. It counts as functional, cell-based. The following applies: Homo sapiens.
Experiment [13] relates to INS1. Briefly: beta cell apoptosis inhibitors, cytokine rescue, dose response, luminescence, retest (AID 449756).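 Also: cell death triggered by IL-1 beta plus TNF-alpha plus IFN-gamma mixture; protective hits raise ATP signal compared with cytokine alone wells.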 To be noted: Rattus norvegicus. It counts as functional, cell-based.
Experiment [14] is described as follows: cytotoxicity toward DRD oncogenic fibroblasts, dose response, cell-based, non-viral oncogenic, luminescence (AID 1934). It counts as functional. The following applies: Homo sapiens.
The test system of experiment [15] is BJ. Kind of experiment: cytotoxicity toward Ras-transformed BJeLR fibroblasts, dose response, cell-based, alamar blue fluorescence, cherrypicked samples (AID 2631).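 Also: confirmatory dose-response assay in RAS-dependent BJ fibroblasts engineered with TERT, LT and ST, with cytotoxicity read by fluorescence.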 It counts as functional. The following applies: Homo sapiens.
Experiment [16] deals with T5, Sentrin-specific protease 1 (Homo sapiens, UniProt Q9P0U3). Kind of experiment: potency of human SENP1 inhibitors, dose response, biochemical, kinetic FRET (AID 651697). To be noted: read-out: IC50_Mean. It counts as functional.
T5 sequence (Q9P0U3 whole entry, the tested form may be a part): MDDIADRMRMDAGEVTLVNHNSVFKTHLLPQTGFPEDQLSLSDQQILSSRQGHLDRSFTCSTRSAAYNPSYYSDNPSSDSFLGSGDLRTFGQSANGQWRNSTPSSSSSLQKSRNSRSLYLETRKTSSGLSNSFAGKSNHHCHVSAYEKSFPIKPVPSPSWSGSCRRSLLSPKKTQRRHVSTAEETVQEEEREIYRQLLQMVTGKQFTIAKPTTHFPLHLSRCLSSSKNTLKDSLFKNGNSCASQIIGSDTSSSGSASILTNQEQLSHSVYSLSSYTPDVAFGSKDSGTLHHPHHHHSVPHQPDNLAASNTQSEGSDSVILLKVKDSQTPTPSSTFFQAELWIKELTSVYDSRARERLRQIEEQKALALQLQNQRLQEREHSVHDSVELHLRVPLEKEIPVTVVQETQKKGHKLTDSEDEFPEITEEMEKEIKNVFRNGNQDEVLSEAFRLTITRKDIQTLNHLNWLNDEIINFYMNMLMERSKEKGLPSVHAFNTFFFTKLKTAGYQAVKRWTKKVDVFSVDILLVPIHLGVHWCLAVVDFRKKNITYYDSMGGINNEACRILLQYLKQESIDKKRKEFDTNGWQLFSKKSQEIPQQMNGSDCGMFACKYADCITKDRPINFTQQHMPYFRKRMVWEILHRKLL
The target of experiment [17] is T5, Sentrin-specific protease 1. Kind of experiment: Dose response confirmation of small molecule inhibitors of the catalytic domain of the SUMO protease, SENP1 in a FRET assay. It counts as functional. To be noted: read-out: IC50_Mean.
In experiment [18] the target is Large T antigen (Simian virus 40, UniProt P03070). It counts as functional, Betapolyomavirus macacae.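 Also: Confirmatory-stage PubChem screen for compounds that inhibit SV40 T antigen.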
Large T antigen, sequence (P03070 whole entry): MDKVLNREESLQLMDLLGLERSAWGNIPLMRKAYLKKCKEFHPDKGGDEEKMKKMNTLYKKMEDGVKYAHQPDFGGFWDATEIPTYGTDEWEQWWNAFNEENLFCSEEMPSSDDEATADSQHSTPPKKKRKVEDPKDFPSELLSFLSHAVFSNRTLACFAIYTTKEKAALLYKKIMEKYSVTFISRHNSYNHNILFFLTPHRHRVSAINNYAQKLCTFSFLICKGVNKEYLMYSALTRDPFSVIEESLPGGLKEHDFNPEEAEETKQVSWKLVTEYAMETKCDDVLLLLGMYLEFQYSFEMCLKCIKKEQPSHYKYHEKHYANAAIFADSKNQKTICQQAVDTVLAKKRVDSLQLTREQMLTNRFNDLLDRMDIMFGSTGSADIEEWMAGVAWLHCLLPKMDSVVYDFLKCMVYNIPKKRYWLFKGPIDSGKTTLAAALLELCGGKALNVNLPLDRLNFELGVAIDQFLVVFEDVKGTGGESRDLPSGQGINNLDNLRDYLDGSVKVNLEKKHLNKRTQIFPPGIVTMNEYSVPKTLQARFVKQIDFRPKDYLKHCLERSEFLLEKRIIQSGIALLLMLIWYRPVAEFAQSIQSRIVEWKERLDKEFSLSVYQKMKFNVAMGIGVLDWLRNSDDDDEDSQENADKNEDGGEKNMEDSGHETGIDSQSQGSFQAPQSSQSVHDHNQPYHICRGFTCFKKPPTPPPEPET
Experiment [19] concerns the target T6, Beta Lactamase (Pseudomonas aeruginosa, UniProt Q932Y6). Briefly: VIM-2 inhibitor FRET-based artefact check, dose response, artefact control for selective VIM-2 inhibitor project, biochemical, FRET readout, CCF2 substrate (AID 1926).
For experiment [20], the target named is T7, Beta-lactamase (Pseudomonas aeruginosa, UniProt Q79MP6). Kind of experiment: IMP-1 metallo-beta-lactamase inhibitors, dose response, selectivity assay for VIM-2 inhibitor project, biochemical, epi-absorbance (AID 1920).
T7 sequence (Q79MP6 whole entry): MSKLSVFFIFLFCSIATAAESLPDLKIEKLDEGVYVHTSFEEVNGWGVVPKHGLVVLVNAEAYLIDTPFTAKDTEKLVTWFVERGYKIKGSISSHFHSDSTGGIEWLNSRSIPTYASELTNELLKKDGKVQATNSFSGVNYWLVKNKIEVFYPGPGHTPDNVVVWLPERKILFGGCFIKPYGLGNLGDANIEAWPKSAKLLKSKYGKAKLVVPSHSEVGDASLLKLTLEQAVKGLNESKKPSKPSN
Experiment [21] concerns the target Beta-lactamase (Salmonella choleraesuis (strain SC-B67), UniProt Q5J463). Briefly: Epi-absorbance-based counterscreen for selective VIM-2 inhibitors: dose response biochemical high throughput screening assay to identify inhibitors of TEM-1 serine-beta-lactamase.
The target in experiment [22] is T7, Beta-lactamase. Briefly: […] counterscreen for selective VIM-2 inhibitors: dose response biochemical high throughput screening assay to identify inhibitors of IMP-1 metallo-beta-lactamase.
Experiment [23] concerns the target T6, Beta Lactamase. Kind of experiment: VIM-2 metallo-beta-lactamase inhibitor potency, dose response, biochemical, epi-absorbance readout, selective inhibitors (AID 1919).

T6 sequence (Q932Y6 whole entry): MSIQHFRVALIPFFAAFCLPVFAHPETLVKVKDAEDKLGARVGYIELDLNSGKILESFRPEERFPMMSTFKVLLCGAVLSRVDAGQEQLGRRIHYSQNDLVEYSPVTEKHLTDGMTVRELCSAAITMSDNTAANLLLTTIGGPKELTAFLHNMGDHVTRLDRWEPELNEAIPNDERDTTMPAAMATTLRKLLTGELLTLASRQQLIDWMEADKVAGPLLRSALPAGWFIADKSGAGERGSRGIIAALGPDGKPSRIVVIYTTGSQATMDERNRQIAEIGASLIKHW
Beta-lactamase (Salmonella choleraesuis (strain SC-B67), UniProt Q5J463), sequence (Q5J463 whole entry): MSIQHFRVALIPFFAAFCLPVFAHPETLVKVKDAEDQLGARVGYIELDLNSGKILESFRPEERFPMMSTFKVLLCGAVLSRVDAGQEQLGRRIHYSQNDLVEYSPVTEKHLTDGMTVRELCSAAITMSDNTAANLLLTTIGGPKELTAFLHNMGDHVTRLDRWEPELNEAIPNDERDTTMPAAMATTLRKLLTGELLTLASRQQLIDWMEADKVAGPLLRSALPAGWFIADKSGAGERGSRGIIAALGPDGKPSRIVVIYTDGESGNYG

Turning to `COc1cccc(-c2cc(C(=O)N3CCc4ccccc4C3)no2)c1`, the IC50 in [1] is 46 µM (active); in experiment [2], 32 µM (active); in experiment [3], 7.7 µM (active).
Consider `COc1ccc(CNC(=O)CSc2n[nH]c3c4cc(OC)ccc4nc-3n2)cc1`, for which the IC50 in [4] was 71.6 µM (inactive); in experiment [5], 8.05 µM (active); in experiment [6], 83.3 µM (inactive); in experiment [7], 76.2 µM (inactive).
For the compound `CCOc1cc(/C=C2\COc3ccccc3C2=O)cc(Br)c1OCC(=O)N(C)C`, the EC50 is 16.4 µM (active) in experiment [8]; 5.54 µM (inconclusive) in experiment [9]; 8.64 µM (active) in [12]; 5.72 µM (active) in [14]; 2.12 µM (active) in experiment [15]. Moreover, the CC50 in [10] was 15.2 µM (active). Moreover, the IC50 in experiment [11] was 6.43 µM (active). In addition, the AC50 in experiment [13] is 7.22 µM (active).
On to `COc1cc(SC#N)ccc1/N=C/c1c(C)[nH]n(-c2ccc(C)cc2C)c1=O`, for which the IC50 is 24.8 µM (inactive) in experiment [16], 15 µM (active) in [17] and 7.19 µM (active) in experiment [18].
Turning to `O=[N+]([O-])c1ccccc1/C=N/n1c(S)nnc1C(F)(F)F`, the IC50 is 3.12 µM (active) in experiment [19]; > 59.6 µM (inactive) in [20]; > 59.6 µM (inactive) in [21]; > 59.6 µM (inactive) in [22]; 9.33 µM (active) in experiment [23].
